Results from publication PMC4268243 (Nuclear medicine and biology, 2014).

Assays:
[1] = tested on: SCID mice xenograft tumor models; format: in vivo; conditions: in most cases, over tumors and time points
[2] = tested on: human A549, DU145, U87, MDA MB468 and SKOV3 tumor cells; assay: Amino acid uptake and inhibition, summary over the five tumor cell lines; format: cell-based
SKOV3 tumor xenograft = assay: Biodistribution in SKOV3 tumor-bearing SCID mice; format: in vivo; conditions: listed as (S)-[^18F]FAMP 1
A549 tumor xenograft = assay: Biodistribution in A549 tumor-bearing SCID mice; format: in vivo; conditions: listed as (S)-[^18F]FAMP 1

## CC(N)(C[18F])C(=O)O [(S)-[^18F]1] [2-amino-3-[^18F]fluoro-2-methylpropanoic acid]
[1]
  ratio of tumor to muscle: above 2
[2]; 10 mM BCH, relative to control, most cell lines
  inhibition of uptake by BCH: 36-68%
[2]; 10 mM MeAIB, relative to control, most cell lines
  inhibition of uptake by MeAIB: 10-32%
[2]; 30 minutes incubation, without inhibitors, range over the cell lines
  uptake in tumor cells: 2-5 %ID/5×10^5 cells
[2]; AAT cell inhibition assays with MeAIB and BCH
  amino acid transport system mediating uptake / selectivity: mixed AATs, likely but not limited to system A and system L
SKOV3 tumor xenograft; 15 min post injection
  uptake in blood: 3.5±0.8 %ID/g
  uptake in bone: 2.2±0.7 %ID/g
  uptake in brain: 0.4±0.1 %ID/g
  uptake in heart: 2.8±0.8 %ID/g
  uptake in kidney: 31±6.8 %ID/g
  uptake in liver: 3.6±1.0 %ID/g
  uptake in lung: 4.8±1.3 %ID/g
  uptake in muscle: 2.8±0.9 %ID/g
  uptake in pancreas: 44±15 %ID/g
  uptake in spleen: 9.8±4.3 %ID/g
  uptake in tumor: 6.2±4.1 %ID/g
SKOV3 tumor xenograft; 30 min post injection
  uptake in blood: 3.1±0.7 %ID/g
  uptake in bone: 2.2±0.4 %ID/g
  uptake in brain: 0.5±0.1 %ID/g
  uptake in heart: 2.8±0.5 %ID/g
  uptake in kidney: 22±4.9 %ID/g
  uptake in liver: 3.9±0.6 %ID/g
  uptake in lung: 4.4±0.7 %ID/g
  uptake in muscle: 2.8±0.5 %ID/g
  uptake in pancreas: 40±13 %ID/g
  uptake in spleen: 8.4±2.1 %ID/g
  uptake in tumor: 7.3±3.0 %ID/g
SKOV3 tumor xenograft; 60 min post injection
  uptake in blood: 2.1±0.6 %ID/g
  uptake in bone: 1.7±0.6 %ID/g
  uptake in brain: 0.6±0.2 %ID/g
  uptake in heart: 2.6±0.7 %ID/g
  uptake in kidney: 15±4.8 %ID/g
  uptake in liver: 3.6±1.1 %ID/g
  uptake in lung: 3.2±1.1 %ID/g
  uptake in muscle: 2.2±0.7 %ID/g
  uptake in pancreas: 36±8.6 %ID/g
  uptake in spleen: 5.5±1.2 %ID/g
  uptake in tumor: 6.2±3.1 %ID/g
SKOV3 tumor xenograft; 120 min post injection
  uptake in bone: 1.6±1.1 %ID/g
  uptake in brain: 0.7±0.3 %ID/g
  uptake in heart: 2.6±1.4 %ID/g
  uptake in kidney: 11±5.0 %ID/g
  uptake in liver: 3.2±0.7 %ID/g
  uptake in lung: 2.3±0.8 %ID/g
  uptake in muscle: 1.7±0.9 %ID/g
  uptake in pancreas: 22±3.6 %ID/g
  uptake in spleen: 4.6±2.3 %ID/g
  uptake in tumor: 5.1±1.6 %ID/g
A549 tumor xenograft; 15 min post injection
  uptake in blood: 3.9±0.6 %ID/g
  uptake in bone: 2.6±0.8 %ID/g
  uptake in brain: 0.5±0.1 %ID/g
  uptake in heart: 3.2±0.7 %ID/g
  uptake in kidney: 29±5.7 %ID/g
  uptake in liver: 3.7±0.5 %ID/g
  uptake in lung: 5.5±2.0 %ID/g
  uptake in muscle: 3.3±0.7 %ID/g
  uptake in pancreas: 42±8.4 %ID/g
  uptake in spleen: 9.0±3.0 %ID/g
  uptake in tumor: 6.7±1.7 %ID/g
A549 tumor xenograft; 30 min post injection
  uptake in blood: 3.1±0.6 %ID/g
  uptake in bone: 2.5±0.6 %ID/g
  uptake in brain: 0.6±0.1 %ID/g
  uptake in heart: 3.3±0.4 %ID/g
  uptake in kidney: 21±6.9 %ID/g
  uptake in liver: 3.8±0.6 %ID/g
  uptake in lung: 4.3±1.7 %ID/g
  uptake in muscle: 3.0±0.8 %ID/g
  uptake in pancreas: 39±8.2 %ID/g
  uptake in spleen: 8.4±1.7 %ID/g
  uptake in tumor: 7.9±1.0 %ID/g
A549 tumor xenograft; 60 min post injection
  uptake in blood: 2.3±0.1 %ID/g
  uptake in bone: 2.7±0.6 %ID/g
  uptake in brain: 0.8±0.1 %ID/g
  uptake in heart: 3.0±0.4 %ID/g
  uptake in kidney: 17±1.4 %ID/g
  uptake in liver: 3.5±0.4 %ID/g
  uptake in lung: 2.8±1.3 %ID/g
  uptake in muscle: 2.9±0.6 %ID/g
  uptake in pancreas: 33±6.1 %ID/g
  uptake in spleen: 6.5±1.1 %ID/g
  uptake in tumor: 8.3±1.0 %ID/g
A549 tumor xenograft; 120 min post injection
  uptake in blood: 2.0±0.4 %ID/g
  uptake in bone: 2.0±0.5 %ID/g
  uptake in brain: 0.8±0.1 %ID/g
  uptake in heart: 2.7±0.8 %ID/g
  uptake in kidney: 14±1.8 %ID/g
  uptake in liver: 2.8±0.4 %ID/g
  uptake in lung: 3.1±0.9 %ID/g
  uptake in muscle: 2.3±0.4 %ID/g
  uptake in pancreas: 29±2.3 %ID/g
  uptake in spleen: 6.0±1.7 %ID/g
  uptake in tumor: 6.5±0.8 %ID/g
